Consider four compounds from ChEMBL document CHEMBL5143643, “Development of disulfide-functionalized peptides covalently binding G protein-coupled receptors” (Bioorg Med Chem, 2022).

For experiment [1], the target named is T1, Neurotensin receptor type 1 (Homo sapiens, UniProt P30989). As to the kind of experiment: Displacement of [3H]NT(8-13) from human NTSR1 F2.65C mutant expressed in HEK293 cell membranes by radioligand displacement assay. Also on record: species or system Cell membrane.
Target sequence in this assay (P30989 whole entry, looked up): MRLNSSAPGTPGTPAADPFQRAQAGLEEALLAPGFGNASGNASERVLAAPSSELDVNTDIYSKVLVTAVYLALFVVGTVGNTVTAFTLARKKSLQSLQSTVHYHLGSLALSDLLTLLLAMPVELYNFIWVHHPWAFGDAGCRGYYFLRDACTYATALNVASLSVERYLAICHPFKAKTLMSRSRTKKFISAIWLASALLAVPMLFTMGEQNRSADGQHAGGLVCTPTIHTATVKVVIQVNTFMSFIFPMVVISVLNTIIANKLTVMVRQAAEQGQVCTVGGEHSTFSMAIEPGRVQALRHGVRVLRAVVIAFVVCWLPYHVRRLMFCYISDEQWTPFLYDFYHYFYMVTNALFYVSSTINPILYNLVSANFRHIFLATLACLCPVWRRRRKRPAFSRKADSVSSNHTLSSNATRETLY
Experiment [2] deals with T1, Neurotensin receptor type 1. As to the kind of experiment: Displacement of [3H]NT(8-13) from human NTSR1 F2.65C mutant expressed in HEK293 cell membranes assessed as amount of blocking at 1 uM incubated for 120 mins by radioligand depletion assay. To be noted: Cell membrane. A general note: Displacement assays read how much labelled ligand stays bound in the presence of the test substance.
Target sequence in this assay (P30989 whole entry): as the sequence (P30989 whole entry, looked up) above

Experiment [3] has as its target Neurotensin receptor type 2 (Homo sapiens, UniProt O95665). Briefly: Displacement of [3H]NT(8-13) from human NTSR2 expressed in HEK293 cell membranes by radioligand displacement assay. Further details: species or system Cell membrane.
Experiment [4] has as its target T1, Neurotensin receptor type 1. As to the kind of experiment: Displacement of [3H]neurotensin from human NTSR1 expressed in CHO cell membranes by radioligand depletion assay. Further details: species or system Cell membrane.
Target sequence in this assay (P30989 whole entry): as the sequence (P30989 whole entry, looked up) above

Structures are written as SMILES. *1 amine or outer side, *2 acyl side, *3 side chain or, on linkers, in order; H or OH if unused. Where a SMILES comes first, the peptide text is derived from it. Cysteamine = C(CS[*:2])N[*:1]

Chain of Neurotensin receptor type 2 (O95665 whole entry): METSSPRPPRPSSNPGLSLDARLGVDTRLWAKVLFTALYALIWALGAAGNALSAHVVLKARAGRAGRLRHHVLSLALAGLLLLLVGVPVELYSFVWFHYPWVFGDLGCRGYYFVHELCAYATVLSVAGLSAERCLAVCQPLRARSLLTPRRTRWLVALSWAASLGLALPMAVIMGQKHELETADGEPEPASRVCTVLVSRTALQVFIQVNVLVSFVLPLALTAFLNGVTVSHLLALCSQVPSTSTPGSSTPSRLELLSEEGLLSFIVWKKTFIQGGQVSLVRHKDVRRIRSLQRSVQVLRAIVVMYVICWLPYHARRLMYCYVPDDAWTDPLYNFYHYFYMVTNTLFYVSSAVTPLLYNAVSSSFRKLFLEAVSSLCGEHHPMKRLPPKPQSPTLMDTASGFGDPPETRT

For `CC(C)C[C@H](NC(=O)[C@@H](CCSSCCN)NC(=O)[C@H](Cc1ccc(O)cc1)NC(=O)[C@@H]1CCCN1C(=O)[C@H](CCCNC(=N)N)NC(=O)[C@@H](N)CCCNC(=N)N)C(=O)O`, the values for the Ki in experiment [1], in experiment [3] and in experiment [4] (cho) were 15 nM, 17 nM and 5.3 nM, respectively. Moreover, the Activity in experiment [2] worked out at 88%.
On to `CC[C@H](C)[C@H](NC(=O)[C@H](Cc1ccc(O)cc1)NC(=O)[C@@H]1CCCN1C(=O)[C@H](CCCNC(=N)N)NC(=O)[C@@H](N)CCCNC(=N)N)C(=O)N[C@@H](CC(C)C)C(=O)N[C@H](CCSSCCN)C(=O)O`, for which the results for the Ki in experiment [1], in experiment [3] and in experiment [4] (cho) were 40 nM, 5.2 nM and 7 nM, respectively. Moreover, the Activity in experiment [2] is -2%.
For the compound `CC[C@H](C)[C@H](NC(=O)[C@H](Cc1ccc(O)cc1)NC(=O)[C@@H]1CCCN1C(=O)[C@H](CCCNC(=N)N)NC(=O)[C@@H](N)CCCNC(=N)N)C(=O)N[C@@H](CC(C)C)C(=O)N[C@@H](CSSCCN)C(=O)O` (H-RRPYILC(Cysteamine)-OH), the inhibitory constant (Ki) (as a rule, the equilibrium dissociation constant of an inhibitor or competing ligand from its target) was found to be 51 nM in experiment [1], 4.2 nM in experiment [3] and 2.4 nM in experiment [4]. In experiment [2], the Activity turned out to be 6%.
As for `CC(C)C[C@H](NC(=O)[C@H](CSSCCN)NC(=O)[C@H](Cc1ccc(O)cc1)NC(=O)[C@@H]1CCCN1C(=O)[C@H](CCCNC(=N)N)NC(=O)[C@@H](N)CCCNC(=N)N)C(=O)O`, the Ki in experiment [1] is 28 nM; in experiment [3] it was 55 nM; in experiment [4], 49 nM. For the same compound, the Activity in experiment [2] stood at 61%.
